In patent US6723726B1 (SmithKline Beecham Corporation, priority 1996, dated 2004) one finds IC50 data, which are given here for 19 molecules.

Assay [1] addresses T1, EGFr isolated from solubilised A431 cell membranes (Homo sapiens, UniProt P00533).
T1 construct: EGFr isolated from solubilised A431 cell membranes; endogenous in cells; host or cells: A431 cell membranes (solubilised)
Description: Substrate phosphorylation assay, EGFr. The assay is classed as biochemical. As to conditions: ATP and peptide at Km, 30 min, room temperature. How it is done:
(§1) The substrate phosphorylation assays use baculovirus expressed, recombinant constructs of the intracellular domains of c-erbB-2 and c-erbB-4 that are constitutively active and EGFr isolated from solubilised A431 cell membranes. The method measures the ability of the isolated enzymes to catalyse the transfer of the γ-phosphate from ATP onto tyrosine residues in a biotinylated synthetic peptide (Biotin-[…]. […] The reaction is stopped by the addition of EDTA (final concentration 0.15 mM) and a sample is transferred to a streptavidin-coated 96-well plate. The plate is washed and level of phosphotyrosine on the peptide is determined using a Europium-labelled antiphosphotyrosine antibody and quantified with a time-resolved fluorescence technique.

Assay [2] has as its target T2, c-erbB-2 (baculovirus expressed recombinant intracellular domain) (Homo sapiens, UniProt P04626).
T2 construct: baculovirus expressed, recombinant constructs of the intracellular domains of c-erbB-2 and c-erbB-4 that are constitutively active; made in house
Description: Substrate phosphorylation assay, c-erbB-2. The following applies: ATP and peptide at Km, 30 min, room temperature. The assay is classed as biochemical. The protocol:
as §1

The test system of another assay is HB4a erbB-2 cells. Description: Cell proliferation assay, HB4a transformed by over-expression of c-erbB-2. The assay is classed as cell-based, human. As to conditions: read-out: Cell Proliferation HB4a erbB-2 IC50. How it is done:
(§2) The cell proliferation assay uses an immortalised human breast epithelial cell line (HB4a) which has been transformed by over-expression of c-erbB-2. Growth of these cells in low serum is dependent upon the c-erbB-2 tyrosine kinase activity. The specificity of the effect of the test compounds on tyrosine kinase dependent growth over general toxicity is assessed by comparison to an HB4a cell line which has been transfected with ras. Cells are plated at 3000/well in 96-well plates in 0.1 ml medium and allowed to attach overnight, test compound is added in 0.1 ml medium, with a final concentration of 0.5% DMSO, and the plates incubated for 4 days at 37° C. The cells are then examined microscopically for evidence of morphological detransformation and cell mass is estimated by staining with methylene blue and measuring the absorbance at 620 nm. The results are shown in Table 1 below as the IC50 values in nM. Activity against a range of naturally occurring EGFr or c-erbB-2 over-expressing human tumour cell lines (BT474-breast, HN5-head and neck, N87-gastric and Calu3-lung) is assessed with selected compounds by the same methodology. The results are also shown in Table 1 below as the IC50 values in nM.

Another assay deals with HB4a ras cells. Description: Cell proliferation assay, HB4a transfected with ras (general toxicity comparison). The format is cell-based, human. The following applies: read-out: Cell Proliferation HB4a ras IC50. How it is done: as §2
Assay [3] deals with T3, c-erbB-4 (baculovirus expressed recombinant intracellular domain) (Homo sapiens, UniProt Q15303).
T3 construct: baculovirus expressed, recombinant constructs of the intracellular domains of c-erbB-2 and c-erbB-4 that are constitutively active; made in house
T3 sequence (Q15303 676-1308 limits assumed): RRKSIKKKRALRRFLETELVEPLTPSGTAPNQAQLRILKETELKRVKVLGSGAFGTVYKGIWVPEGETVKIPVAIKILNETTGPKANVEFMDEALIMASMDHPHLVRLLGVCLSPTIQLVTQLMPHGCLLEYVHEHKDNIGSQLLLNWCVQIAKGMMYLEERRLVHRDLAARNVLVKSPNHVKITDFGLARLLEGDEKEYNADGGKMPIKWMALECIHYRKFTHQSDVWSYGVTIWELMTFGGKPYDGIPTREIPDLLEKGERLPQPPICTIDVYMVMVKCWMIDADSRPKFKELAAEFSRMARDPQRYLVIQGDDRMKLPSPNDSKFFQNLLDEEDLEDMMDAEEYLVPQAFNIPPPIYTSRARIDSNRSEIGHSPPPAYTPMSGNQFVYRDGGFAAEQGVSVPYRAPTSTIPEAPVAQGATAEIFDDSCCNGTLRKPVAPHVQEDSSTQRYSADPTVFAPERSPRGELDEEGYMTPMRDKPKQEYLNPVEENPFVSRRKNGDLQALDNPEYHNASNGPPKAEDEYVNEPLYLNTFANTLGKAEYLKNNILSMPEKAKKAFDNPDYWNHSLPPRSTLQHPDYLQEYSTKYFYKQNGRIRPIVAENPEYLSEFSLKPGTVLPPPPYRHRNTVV
Description: Substrate phosphorylation assay, c-erbB-4. The assay is classed as biochemical. As to conditions: ATP and peptide at Km, 30 min, room temperature. The protocol: as §1

The mark [4] stands for this setting: Homo sapiens, HB4a, 96 h, 4 days, methylene blue staining.
The mark [5] stands for this setting: 4 days, methylene blue staining.

pIC50: −log10 of the molar value. Structures can show the parent of a compound that is named as a salt. Where two headings read alike, the source gives them in different places.

T1 sequence (P00533 25-1210): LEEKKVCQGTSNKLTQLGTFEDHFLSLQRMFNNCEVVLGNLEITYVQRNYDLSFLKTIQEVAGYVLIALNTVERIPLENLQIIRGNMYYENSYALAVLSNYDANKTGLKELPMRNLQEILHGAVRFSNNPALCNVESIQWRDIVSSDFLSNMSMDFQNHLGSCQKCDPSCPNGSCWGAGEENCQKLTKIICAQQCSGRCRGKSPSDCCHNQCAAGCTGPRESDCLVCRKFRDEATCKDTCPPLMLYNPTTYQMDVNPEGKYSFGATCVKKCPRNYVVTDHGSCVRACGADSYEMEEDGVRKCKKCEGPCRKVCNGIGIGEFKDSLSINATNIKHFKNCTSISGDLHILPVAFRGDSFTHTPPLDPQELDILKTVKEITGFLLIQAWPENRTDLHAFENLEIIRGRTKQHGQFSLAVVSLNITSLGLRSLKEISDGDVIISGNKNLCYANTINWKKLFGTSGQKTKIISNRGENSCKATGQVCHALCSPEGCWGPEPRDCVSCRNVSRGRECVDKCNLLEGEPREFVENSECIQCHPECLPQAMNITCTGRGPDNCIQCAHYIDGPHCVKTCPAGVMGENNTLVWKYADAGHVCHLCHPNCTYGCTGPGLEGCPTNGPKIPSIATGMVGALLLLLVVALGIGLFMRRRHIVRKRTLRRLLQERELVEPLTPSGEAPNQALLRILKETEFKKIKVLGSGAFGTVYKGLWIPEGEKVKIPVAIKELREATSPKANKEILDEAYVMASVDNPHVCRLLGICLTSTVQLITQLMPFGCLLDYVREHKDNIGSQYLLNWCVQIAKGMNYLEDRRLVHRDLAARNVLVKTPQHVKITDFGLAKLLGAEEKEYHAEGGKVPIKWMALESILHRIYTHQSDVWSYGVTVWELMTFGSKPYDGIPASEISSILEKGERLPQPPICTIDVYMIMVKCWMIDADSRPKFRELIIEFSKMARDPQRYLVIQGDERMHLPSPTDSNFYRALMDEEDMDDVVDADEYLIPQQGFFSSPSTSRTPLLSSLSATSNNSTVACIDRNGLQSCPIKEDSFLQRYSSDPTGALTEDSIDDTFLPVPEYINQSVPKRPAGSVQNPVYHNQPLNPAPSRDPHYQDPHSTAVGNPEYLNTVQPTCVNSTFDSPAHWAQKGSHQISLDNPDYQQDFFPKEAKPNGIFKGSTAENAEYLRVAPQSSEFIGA
T2 sequence (P04626 676-1255 limits assumed): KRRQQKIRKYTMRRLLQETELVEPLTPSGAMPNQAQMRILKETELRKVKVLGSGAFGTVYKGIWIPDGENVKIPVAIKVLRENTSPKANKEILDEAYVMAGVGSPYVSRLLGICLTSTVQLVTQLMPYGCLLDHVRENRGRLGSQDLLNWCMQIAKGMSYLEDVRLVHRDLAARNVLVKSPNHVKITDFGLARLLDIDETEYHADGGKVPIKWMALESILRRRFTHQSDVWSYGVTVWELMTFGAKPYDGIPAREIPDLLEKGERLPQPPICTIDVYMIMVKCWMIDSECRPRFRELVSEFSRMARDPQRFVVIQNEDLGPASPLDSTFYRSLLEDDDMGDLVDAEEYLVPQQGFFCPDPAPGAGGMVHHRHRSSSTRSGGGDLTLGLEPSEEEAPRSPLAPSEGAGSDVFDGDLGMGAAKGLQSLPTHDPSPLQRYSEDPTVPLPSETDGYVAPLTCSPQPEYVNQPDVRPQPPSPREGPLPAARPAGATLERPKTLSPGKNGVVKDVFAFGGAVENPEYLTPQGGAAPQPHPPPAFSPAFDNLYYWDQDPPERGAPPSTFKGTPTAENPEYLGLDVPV

Regarding `c1ccc(Cn2ncc3cc(Nc4ncnc5cnc(-n6ccnc6)cc45)ccc32)cc1` [Example 20, (1-Benzyl-1H-indazol-5-yl)-(6-imidazol-1-yl-pyrido[3,4-d]pyrimidin-4-yl)-amine], the pIC50 in assay [1] is 8.40; in assay [2], 7.48; with HB4a erbB-2 cells (setting [4]) it was 6.33; in the assay with HB4a ras cells (setting [4]) it was 4.85.

Turning to `c1ccc(Cn2ncc3cc(Nc4ncnc5cnccc45)ccc32)cc1` [Example 4, (1-Benzyl-1H-indazol-5-yl)-(pyrido[3,4-d]pyrimidin-4-yl)-amine], the pIC50 in assay [2] was 6.92; in assay [3], 5.89; with HB4a erbB-2 cells (setting [4]), 5.41; in the assay on HB4a ras cells (setting [4]), 4.89.

Turning to `c1ccc(Cn2ncc3cc(Nc4ncnc5cnc(-n6nccn6)cc45)ccc32)cc1` [Example 22], the pIC50 in assay [1] was 7.66; with HB4a erbB-2 cells (setting [5]), 5.77; in the assay with HB4a ras cells (setting [5]), 4.74.

In the case of `Cc1nn(Cc2ccccc2)c2ccc(Nc3ncnc4cnc(N(C)C)cc34)cc12` [Example 14, N4-(1-Benzyl-3-methyl-1H-indazol-5-yl)-N6,N6-dimethyl-pyrido[3,4-d]pyrimidine-4,6-diamine], the pIC50 in assay [1] is 6.08; in assay [2] it was 6.37; in assay [3] it was 5.82; in the assay on HB4a erbB-2 cells (setting [4]), 6.02; in the assay on HB4a ras cells (setting [4]) it was 5.10.

For `O=C(O)c1ccc(-c2cc3c(Nc4ccc5c(cnn5Cc5ccccc5)c4)ncnc3cn2)o1` [Example 35, 5-[4-(1-Benzyl-1H-indazol-5-ylamino)-pyrido-[3,4-d]pyrimidin-6-yl]-furan-2-carboxylic Acid Hydrochloride], the pIC50 was 5.80 in assay [1], 4.57 in the assay with HB4a erbB-2 cells (setting [4]) and less than 4.30 with HB4a ras cells (setting [4]).

In the case of `CN(C)c1cc2c(Nc3ccc4c(cnn4Cc4ccccn4)c3)ncnc2cn1` [Example 12, N6,N6-Dimethyl-N4-(1-pyridin-2-ylmethyl-1H-indazol-5-yl)-pyrido[3,4-d]pyrimidine-4,6diamine Hydrochloride], the pIC50 in assay [1] is 7.11; in assay [2], 9.00; in assay [3], 8.52; in the assay on HB4a erbB-2 cells (setting [4]) it was 6.77; with HB4a ras cells (setting [4]), 4.49.

As to `CS(=O)(=O)CCNC(=O)c1ccc(-c2cc3c(Nc4ccc5c(cnn5Cc5ccccc5)c4)ncnc3cn2)o1` [Example 36, 5-[4-(1-benzyl-1H-indazol-5-ylamino)-pyrido-[3,4-d]pyrimidin-6-yl]-furan-2-carboxylic Acid 2-methanesulphonyl-ethylamide Hydrochloride], the pIC50 in assay [1] is 5.80; in the assay with HB4a erbB-2 cells (setting [4]) it was 5.51; in the assay on HB4a ras cells (setting [4]), less than 4.30.

For `CN(C)c1cc2c(Nc3ccc4c(cnn4Cc4ccccc4F)c3)ncnc2cn1` [Example 15, N4-(1-(2-Fluoro-benzyl)1H-indazol-5-yl)-N6,N6-dimethyl-pyrido[3,4-d]pyrimidine-4.6-diamine Hydrochloride], the pIC50 in assay [2] is 8.15; in assay [3], 8.40; in the assay on HB4a erbB-2 cells (setting [4]), 8.40; in the assay with HB4a ras cells (setting [4]) it was 4.85.

For the molecule `O=C(CN1CCN(c2cc3c(Nc4ccc5c(cnn5Cc5ccccc5)c4)ncnc3cn2)CC1)N1CCOCC1` [Example 28, 2-(4-(4-(1-Benzyl-1H-indazol-5-ylamino)-pyrido[3,4-d]pyrimidin-6-yl)-piperazin-1-yl)-1-morpholin-4-yl-ethanone], the pIC50 in assay [2] was 8.40; in assay [3], 6.77; in the assay with HB4a erbB-2 cells (setting [4]), 6.23; with HB4a ras cells (setting [4]) it was 4.55.

With `Clc1cc2c(Nc3ccc4c(cnn4Cc4ccccc4)c3)ncnc2cn1` [Example 1, (1-Benzyl-1H-indazol-5-yl)-(6-chloro-pyrido[3,4-d]pyrimidin-4-yl)-amine Hydrochloride], the pIC50 is 7.57 in assay [2] and 7.32 in assay [3].

Take `c1ccc(Cn2ncc3cc(Nc4ncnc5cnc(-n6cncn6)cc45)ccc32)cc1` [Example 21]: the pIC50 in assay [1] is 7.27; in the assay with HB4a erbB-2 cells (setting [5]), 6.30; in the assay with HB4a ras cells (setting [5]), 4.74.

Take `Cc1nnc(-c2cc3c(Nc4ccc5c(cnn5Cc5cccc(F)c5)c4)ncnc3cn2)o1` [Example 30, (1-(3-Fluoro-benzyl)-1H-indazol-5-yl)-(6-(5-methyl-1,3,4-oxadiazol-2-yl)-pyrido[3,4-d]pyrimidin-4-yl)-amine Hydrochloride]: the pIC50 is 8.70 in assay [1]; 8.70 in assay [2]; 5.02 in assay [3]; 5.54 in the assay on HB4a erbB-2 cells (setting [4]); 4.59 in the assay with HB4a ras cells (setting [4]).

With `c1ccc(Cn2ncc3cc(Nc4ncnc5cnc(-n6ccnn6)cc45)ccc32)cc1` [Example 23], the values for the pIC50 (in assay [1]; in the assay with HB4a erbB-2 cells (setting [5]); in the assay on HB4a ras cells (setting [5])) were 7.51, 6.60 and 4.66, respectively.

`c1ccc(COc2cc3c(Nc4ccc5c(cnn5Cc5ccccc5)c4)ncnc3cn2)cc1` [Example 33, (1-Benzyl-1H-indazolyl-5-yl)-(6-benzyloxy-pyrido[3,4-d]pyrimidin-4-yl)-amine Hydrochloride]: the pIC50 in assay [1] is 5.72; in assay [2] it was 6.85; in assay [3] it was 5.57; in the assay on HB4a erbB-2 cells (setting [4]), less than 4.30; in the assay on HB4a ras cells (setting [4]), 4.30.

For the molecule `CN(C)c1cc2c(Nc3ccc4c(S(=O)(=O)c5ccccc5)c[nH]c4c3)ncnc2cn1` [Example 19, Hydrochloride], the pIC50 is 6.27 in assay [1]; 8.22 in assay [2]; 6.89 in assay [3]; 5.92 with HB4a erbB-2 cells (Homo sapiens, HB4a, 96 h); 4.48 in the assay on HB4a ras cells (Homo sapiens, HB4a, 96 h).

Take `CC(C)NC(=O)CN1CCN(c2cc3c(Nc4ccc5c(cnn5Cc5ccccc5)c4)ncnc3cn2)CC1` [Example 27, 2-(4-(4-(1-Benzyl-1H-indazol-5-ylamino)-pyrido[3,4-d]pyrimidin-6-yl)-piperazin-1-yl)-N-isopropyl-acetamide]: the pIC50 in assay [2] is 8.70; in assay [3] it was 6.72; with HB4a erbB-2 cells (setting [4]) it was 6.42; with HB4a ras cells (setting [4]), 4.68.

In the case of `CCN(C)c1cc2c(Nc3ccc4c(cnn4Cc4ccccc4)c3)ncnc2cn1` [Example 26, N4-(1-Benzyl-1H-indazol-5-yl)-N6-ethyl-N6-methyl-pyrido[3,4-d]pyrimidine-4.6-diamine], the pIC50 in assay [1] was 7.27; in assay [2], 7.54; with HB4a erbB-2 cells (setting [5]), 6.82; in the assay with HB4a ras cells (setting [5]), 5.05.

As to `CN(C)c1cc2c(Nc3ccc4c(cnn4Cc4cccnc4)c3)ncnc2cn1` [Example 13, N6,N6-Dimethyl-N4-(1-pyridin-3-ylmethyl-1H-indazol-5-yl)-pyrido[3,4-d]pyrimidine-4,6-diamine Hydrochloride], the pIC50 in assay [1] is 6.43; in assay [2] it was 7.30; in assay [3], 5.62; with HB4a erbB-2 cells (setting [4]), 6.62; in the assay on HB4a ras cells (setting [4]), 4.55.

Regarding `CN(C)c1cc2c(Nc3ccc4c(cnn4Cc4ccc(O)cc4)c3)ncnc2cn1` [Example 38, N4-[1-(4-Hydroxybenzyl)-1H-indazol-5-yl)-N6,N6-dimethyl-pyrido[3,4-d]pyrimidine-4,6-diamine], the pIC50 was 6.03 in assay [1]; 6.48 in assay [2]; 5.72 in assay [3]; 5.16 with HB4a erbB-2 cells (setting [4]); 4.30 with HB4a ras cells (setting [4]).
